Source: PubChem BioAssay (NCI)
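Method: 48-hour compound exposure of cells in 96-well plates, five concentrations, linear interpolation of endpoints. At the GI50, growth is halved. The concentration for full growth arrest is given as TGI.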

Legend:
Assay in all cases: NCI tumour cell line growth inhibition, 48 h
HOP-62 NSCLC = tested on: HOP-62 NSCLC
T-47D breast = tested on: T-47D breast
MOLT-4 leukemia = tested on: MOLT-4 leukemia
A549 NSCLC = tested on: A549 NSCLC
ACHN renal = tested on: ACHN renal
M14 melanoma = tested on: M14 melanoma
SW-620 colon = tested on: SW-620 colon
COLO 205 colon = tested on: COLO 205 colon
DU-145 prostate = tested on: DU-145 prostate
IGROV1 ovarian = tested on: IGROV1 ovarian

O=C1C(Cl)=C(Nc2ccccn2)C(=O)c2ccccc21
GI50 (HOP-62 NSCLC): 2.57 µM | TGI (HOP-62 NSCLC): 6.15 µM | GI50 (T-47D breast): 3.1 µM | TGI (T-47D breast): 10.2 µM | GI50 (MOLT-4 leukemia): 2.79 µM | TGI (MOLT-4 leukemia): 6.6 µM | GI50 (A549 NSCLC): 9.02 µM | TGI (A549 NSCLC): 37 µM | GI50 (ACHN renal): 3 µM | TGI (ACHN renal): 9.93 µM | GI50 (M14 melanoma): 2.07 µM | TGI (M14 melanoma): 3.84 µM | GI50 (SW-620 colon): 2.29 µM | TGI (SW-620 colon): 5.16 µM | GI50 (COLO 205 colon): 3.23 µM | TGI (COLO 205 colon): 11.4 µM | GI50 (DU-145 prostate): 1.94 µM | TGI (DU-145 prostate): 3.39 µM | GI50 (IGROV1 ovarian): 3.04 µM | TGI (IGROV1 ovarian): 8.05 µM

Cc1cccc2c1NC(=O)C2(c1ccc(O)cc1)c1ccc(O)cc1
GI50 (HOP-62 NSCLC): 14.8 µM | TGI (HOP-62 NSCLC): 38.3 µM | GI50 (T-47D breast): < 0.01 µM | GI50 (MOLT-4 leukemia): 11.8 µM | TGI (MOLT-4 leukemia): 75 µM | GI50 (A549 NSCLC): 21.1 µM | TGI (A549 NSCLC): > 100 µM | GI50 (ACHN renal): 12.4 µM | TGI (ACHN renal): > 100 µM | GI50 (M14 melanoma): 15.5 µM | TGI (M14 melanoma): 41 µM | GI50 (SW-620 colon): 20.8 µM | TGI (SW-620 colon): 69.8 µM | GI50 (COLO 205 colon): 0.0135 µM | TGI (COLO 205 colon): 11.1 µM | GI50 (DU-145 prostate): 15.3 µM | TGI (DU-145 prostate): 55.4 µM | GI50 (IGROV1 ovarian): 0.0634 µM | TGI (IGROV1 ovarian): 47.6 µM

C=CCCC(O)c1ccc(CCCCCCCCCCC)o1 (stereo not drawn)
GI50 (HOP-62 NSCLC): 17.3 µM | TGI (HOP-62 NSCLC): 32.2 µM | GI50 (T-47D breast): 13.8 µM | TGI (T-47D breast): 30.5 µM | GI50 (MOLT-4 leukemia): 29.9 µM | TGI (MOLT-4 leukemia): > 100 µM | GI50 (A549 NSCLC): 18.6 µM | TGI (A549 NSCLC): 35.1 µM | GI50 (ACHN renal): 15.6 µM | TGI (ACHN renal): 28.9 µM | GI50 (M14 melanoma): 17.2 µM | TGI (M14 melanoma): 32.4 µM | GI50 (SW-620 colon): 17 µM | TGI (SW-620 colon): 32.2 µM | GI50 (COLO 205 colon): 17.9 µM | TGI (COLO 205 colon): 35.3 µM | GI50 (DU-145 prostate): 16.4 µM | TGI (DU-145 prostate): 31.1 µM | GI50 (IGROV1 ovarian): 16.5 µM | TGI (IGROV1 ovarian): 32 µM

CCCC(=O)Nc1ncnc2c1ncn2C1OC2COP(=O)(O)OC2C1OC(=O)CCC (stereo not drawn)
GI50 (HOP-62 NSCLC): > 1000 µM | TGI (HOP-62 NSCLC): > 1000 µM | GI50 (T-47D breast): > 1000 µM | TGI (T-47D breast): > 1000 µM | GI50 (MOLT-4 leukemia): > 1000 µM | TGI (MOLT-4 leukemia): > 1000 µM | GI50 (A549 NSCLC): > 1000 µM | TGI (A549 NSCLC): > 1000 µM | GI50 (ACHN renal): > 1000 µM | TGI (ACHN renal): > 1000 µM | GI50 (M14 melanoma): > 1000 µM | TGI (M14 melanoma): > 1000 µM | GI50 (SW-620 colon): > 1000 µM | TGI (SW-620 colon): > 1000 µM | GI50 (COLO 205 colon): > 1000 µM | TGI (COLO 205 colon): > 1000 µM | GI50 (DU-145 prostate): > 1000 µM | TGI (DU-145 prostate): > 1000 µM | GI50 (IGROV1 ovarian): > 1000 µM

C(=C\c1nc2ccccc2s1)/c1ccc(N2CCOCC2)s1
GI50 (HOP-62 NSCLC): 45.5 µM | TGI (HOP-62 NSCLC): > 100 µM | GI50 (T-47D breast): 71 µM | TGI (T-47D breast): > 100 µM | GI50 (MOLT-4 leukemia): > 100 µM | TGI (MOLT-4 leukemia): > 100 µM | GI50 (A549 NSCLC): 31.8 µM | TGI (A549 NSCLC): > 100 µM | GI50 (ACHN renal): 33.4 µM | TGI (ACHN renal): > 100 µM | GI50 (M14 melanoma): > 100 µM | TGI (M14 melanoma): > 100 µM | GI50 (SW-620 colon): > 100 µM | TGI (SW-620 colon): > 100 µM | GI50 (COLO 205 colon): > 100 µM | TGI (COLO 205 colon): > 100 µM | GI50 (DU-145 prostate): 48.8 µM | TGI (DU-145 prostate): > 100 µM | GI50 (IGROV1 ovarian): 58.3 µM | TGI (IGROV1 ovarian): > 100 µM

O=C(O)CP(=O)(c1ccccc1)c1ccccc1.O=C(O)CP(=O)(c1ccccc1)c1ccccc1.[Cd]
GI50 (HOP-62 NSCLC): 18.6 µM | TGI (HOP-62 NSCLC): 46.1 µM | GI50 (T-47D breast): 24 µM | TGI (T-47D breast): 73.3 µM | GI50 (MOLT-4 leukemia): 33.4 µM | TGI (MOLT-4 leukemia): 52.4 µM | GI50 (A549 NSCLC): 17.1 µM | TGI (A549 NSCLC): 35.1 µM | GI50 (ACHN renal): 16.1 µM | TGI (ACHN renal): 30.4 µM | GI50 (M14 melanoma): 17.3 µM | TGI (M14 melanoma): 53.8 µM | GI50 (SW-620 colon): 19.6 µM | TGI (SW-620 colon): 42.6 µM | GI50 (COLO 205 colon): 31.8 µM | TGI (COLO 205 colon): > 100 µM | GI50 (DU-145 prostate): 19.4 µM | TGI (DU-145 prostate): 41.3 µM | GI50 (IGROV1 ovarian): 16.6 µM | TGI (IGROV1 ovarian): 37.1 µM

C/C=C(\C)C(=O)OC1C2C(C)C(=O)OC2C(O)C(C)C2C=CC(=O)C21C (stereo not drawn)
TGI (HOP-62 NSCLC): 40.3 µM | TGI (T-47D breast): 43.3 µM | TGI (MOLT-4 leukemia): 33.7 µM | TGI (A549 NSCLC): 61.3 µM | TGI (ACHN renal): 26.8 µM | TGI (M14 melanoma): 31.3 µM | TGI (SW-620 colon): 28.7 µM | TGI (COLO 205 colon): 26.3 µM | TGI (DU-145 prostate): 24.7 µM | TGI (IGROV1 ovarian): 25.5 µM
